Laboratory results reported in US8163724B2, “Glucocorticosteroids, processes for their preparation, pharmaceutical compositions containing them and their use in therapy” (AstraZeneca AB, priority 2007, dated 2012).

Molecular target: T1, recombinant human GR (Homo sapiens, UniProt P04150)
T1 construct: purchased Panvera/Invitrogen P2812 (kit P2893)
T1 sequence (P04150 1-777): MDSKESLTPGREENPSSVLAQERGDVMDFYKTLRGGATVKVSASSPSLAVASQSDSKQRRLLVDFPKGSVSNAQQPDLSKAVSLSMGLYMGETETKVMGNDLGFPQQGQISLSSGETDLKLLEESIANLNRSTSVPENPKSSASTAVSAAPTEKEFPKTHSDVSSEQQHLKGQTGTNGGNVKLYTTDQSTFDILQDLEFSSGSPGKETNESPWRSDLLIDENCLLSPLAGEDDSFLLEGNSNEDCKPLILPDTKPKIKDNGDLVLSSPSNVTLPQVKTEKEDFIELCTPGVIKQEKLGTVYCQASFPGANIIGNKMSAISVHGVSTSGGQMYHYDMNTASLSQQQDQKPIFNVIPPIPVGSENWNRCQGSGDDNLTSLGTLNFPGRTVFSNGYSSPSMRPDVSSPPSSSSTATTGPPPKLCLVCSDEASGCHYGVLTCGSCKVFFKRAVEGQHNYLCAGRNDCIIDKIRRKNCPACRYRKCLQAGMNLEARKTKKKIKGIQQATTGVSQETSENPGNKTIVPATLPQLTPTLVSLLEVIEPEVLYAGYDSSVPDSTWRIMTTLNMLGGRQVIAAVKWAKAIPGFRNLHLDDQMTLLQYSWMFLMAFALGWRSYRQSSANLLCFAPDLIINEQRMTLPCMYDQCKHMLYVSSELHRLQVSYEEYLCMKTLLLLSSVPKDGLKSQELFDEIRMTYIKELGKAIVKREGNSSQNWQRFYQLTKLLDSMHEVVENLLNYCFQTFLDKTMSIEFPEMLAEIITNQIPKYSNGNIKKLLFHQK
Test: Human Glucocorticoid Receptor (GR) Assay (fluorescence polarization, Panvera/Invitrogen kit)
Format: binding
Details: fluorescence polarization; GS Red tracer; 2 hours at room temperature; 100% control 10 μM Dexamethasone; read-out: Inhibition of GR binding, IC50
How it was run: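 Fluorescence polarization competition with recombinant GR and GS Red fluorescent ligand plus stabilizing peptide and DTT in potassium phosphate/sodium molybdate/EDTA buffer with DMSO. Incubated 2 hours at room temperature in the dark; 0% control DMSO, 100% control 10 μM dexamethasone.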

SMILES	IC50
C[C@]12Cc3cnn(-c4ccc(F)cc4)c3C=C1CC[C@H]1[C@@H]3CC[C@](OC(=O)C4CC4)(C(=O)SCF)[C@@]3(C)C[C@H](O)[C@@]12F [Example 196, (1R,3aS,3bS,10aS,10bR,11S,12aS)-1-{[(Fluoromethyl)sulfanyl]carbonyl}-10b-fluoro-7-(4-fluorophenyl)-11-hydroxy-10a,12a-dimethyl-1,2,3,3a,3b,4,5,7,10,10a,10b,11,12,12a-tetradecahydrocyclopenta[5,6]naphtho[1,2-f]indazol-1-yl cyclopropanecarboxylate]	14 nM
CCC(=O)O[C@]1(C(=O)SCF)CC[C@H]2[C@@H]3C[C@H](C)C4=Cc5c(cnn5-c5ccc(F)cc5)C[C@]4(C)[C@H]3[C@@H](O)C[C@@]21C [Example 214, (1R,3aS,3bS,5S,10aR,10bS,11S,12aS)-1-{[(Fluoromethyl)sulfanyl]carbonyl}-7-(4-fluorophenyl)-11-hydroxy-5,10a,12a-trimethyl-1,2,3,3a,3b,4,5,7,10,10a,10b,11,12,12a-tetradecahydrocyclopenta[5,6]naphtho[1,2-f]indazol-1-yl propanoate]	49 nM
Cn1cccc1C(=O)O[C@]1(C(=O)SCC#N)CC[C@H]2[C@@H]3CCC4=Cc5c(cnn5-c5ccc(F)cc5)C[C@]4(C)[C@H]3[C@@H](O)C[C@@]21C [Example 176, (1R,3aS,3bS,10aR,10bS,11S,12aS)-1-{[(Cyanomethyl)thio]carbonyl}-7-(4-fluorophenyl)-11-hydroxy-10a,12a-dimethyl-1,2,3,3a,3b,4,5,7,10,10a,10b,11,12,12a-tetradecahydrocyclopenta[5,6]naphtho[1,2-f]indazol-1-yl 1-methyl-1H-pyrrole-2-carboxylate]	11 nM
C[C@]12Cc3cnn(-c4ccc(F)cc4)c3C=C1CC[C@@H]1[C@@H]2[C@@H](O)C[C@@]2(C)[C@H]1CC[C@]2(OC(=O)c1ccco1)C(=O)SCSC#N [Example 83, (1R,3aS,3bS,10aR,10bS,11S,12aS)-7-(4-Fluorophenyl)-11-hydroxy-10a,12a-dimethyl-1-{[(thiocyanatomethyl)sulfanyl]carbonyl}-1,2,3,3a,3b,4,5,7,10,10a,10b,11,12,12a-tetradecahydrocyclopenta[5,6]naphtho[1,2-f]indazol-1-yl furan-2-carboxylate]	18 nM
CSC(=O)[C@@]1(O)CC[C@H]2[C@@H]3CCC4=Cc5c(cnn5-c5ccc(F)nc5)C[C@]4(C)[C@H]3[C@@H](O)C[C@@]21C [Example 165, S-Methyl(1R,3aS,3bS,10aR,10bS,11S,12aS)-7-(6-fluoropyridin-3-yl)-1,11-dihydroxy-10a,12a-dimethyl-1,2,3,3a,3b,4,5,7,10,10a,10b,11,12,12a-tetradecahydrocyclopenta[5,6]naphtho[1,2-f]indazole-1-carbothioate]	3.8 nM
CC(=O)O[C@]1(C(=O)CO)CC[C@H]2[C@@H]3CCC4=Cc5c(cnn5-c5ccc(F)cc5)C[C@]4(C)[C@H]3[C@@H](O)C[C@@]21C [Example 122, (1R,3aS,3bS,10aR,10bS,11S,12aS)-7-(4-Fluorophenyl)-11-hydroxy-1-(hydroxyacetyl)-10a,12a-dimethyl-1,2,3,3a,3b,4,5,7,10,10a,10b,11,12,12a-tetradecahydrocyclopenta[5,6]naphtho[1,2-f]indazol-1-yl acetate]	1.3 nM
CCC(=O)O[C@]1(C(=O)SCCCO)CC[C@H]2[C@@H]3CCC4=Cc5c(cnn5-c5ccc(F)cc5)C[C@]4(C)[C@H]3[C@@H](O)C[C@@]21C [Example 24, (1R,3aS,3bS,10aR,10bS,11S,12aS)-7-(4-Fluorophenyl)-11-hydroxy-1-{[(3-hydroxy-propyl)thio]carbonyl}-10a,12a-dimethyl-1,2,3,3a,3b,4,5,7,10,10a,10b,11,12,12a-tetradecahydrocyclopenta[5,6]naphtho[1,2-f]indazol-1-yl propanoate]	5.1 nM
C[C@]12Cc3cnn(-c4ccc(F)c(CO)c4)c3C=C1CC[C@@H]1[C@@H]2[C@@H](O)C[C@@]2(C)[C@H]1CC[C@]2(OC(=O)C1CC1)C(=O)SCF [Example 139, (1R,3aS,3bS,10aR,10bS,11S,12aS)-7-[4-Fluoro-3-(hydroxymethyl)phenyl]-1-{[(fluoromethyl)thio]carbonyl}-11-hydroxy-10a,12a-dimethyl-1,2,3,3a,3b, 4,5,7,10,10a,10b,11,12,12a-tetradecahydrocyclopenta[5,6]naphtho[1,2-f]indazol-1-yl cyclopropanecarboxylate]	3.5 nM
C[C@]12Cc3cnn(-c4ccc(F)c(F)c4)c3C=C1CC[C@@H]1[C@@H]2[C@@H](O)C[C@@]2(C)[C@H]1CC[C@]2(OC(=O)c1ccco1)C(=O)SCC#N [Example 103, (1R,3aS,3bS,10aR,10bS,11S,12aS)-1-{[(Cyanomethyl)thio]carbonyl}-7-(3,4-difluorophenyl)-11-hydroxy-10a,12a-dimethyl-1,2,3,3a,3b,4,5,7,10,10a,10b,11,12,12a-tetradecahydrocyclopenta[5,6]naphtho[1,2-f]indazol-1-yl furan-2-carboxylate]	6.4 nM
Cn1cc(C(=O)O[C@]2(C(=O)SCC#N)CC[C@H]3[C@@H]4CCC5=Cc6c(cnn6-c6ccc(F)cc6)C[C@]5(C)[C@H]4[C@@H](O)C[C@@]32C)nn1 [Example 47, (1R,3aS,3bS,10aR,10bS,11S,12aS)-1-{[(Cyanomethyl)thio]carbonyl}-7-(4-fluoro-phenyl)-11-hydroxy-10a,12a-dimethyl-1,2,3,3a,3b,4,5,7,10,10a,10b,11,12,12a-tetradecahydrocyclopenta[5,6]naphtho[1,2-f]indazol-1-yl 1-methyl-1H-1,2,3-triazole-4-carboxylate]	2.5 nM
